According to article PMC9569971, “New Oxazolo[5,4-d]pyrimidines as Potential Anticancer Agents: Their Design, Synthesis, and In Vitro Biological Activity Research” (International Journal of Molecular Sciences, 2022):

Experiments:
BCL-2 = BCL-2 Human ELISA Kit, HT29 lysate; type: cell-based; conditions: lysate of HT29 cells treated with 3g; SD ±0.11
Method: The assay was performed on a lysate of the HT29 colon adenocarcinoma cell line treated with compound 3g. The wells of the assay microplate were coated with a BCL-2-specific antibody, and the BCL-2 present in the test and standards was bound to the antibodies adsorbed in the microwells, which were washed twice with 400 µL of washing buffer per well with careful aspiration. The washing buffer was left in the wells for 15 s before aspiration. Care was taken not to scratch the surface of the microwells. Following the final washing step, the wells were emptied and excess washing buffer was discarded. Two rows of the human standard BCL-2 were prepared at dilutions ranging from 32.0 to 0.5 ng/mL. Biotin conjugate was prepared, and 50 µL of biotin conjugate was added to all wells, covered with adhesive foil, and incubated at room temperature (18 to 25 °C) for 2 h on a microplate shaker. The adhesive film was removed and washed 3 times. […] The color change of the mixture was monitored with an ELISA reader at 620 nm. […] The results were read immediately after the stop solution was added. The reading was taken at the original wavelength of 450 nm. […]
Biological assays were performed in three independent replicates, and each replicate used four samples. […] For the assessment of cytotoxicity, mathematical models were developed using the GraphPad PRISM software, based on which CC50 was determined. […]

[1] = test system: breast adenocarcinoma (MCF7); test: MTT viability assay, MCF7; type: cell-based, human; conditions: Homo sapiens; MCF7, MTT, tested 1–500 µM
HT29 cells = test: Migration (scratch) assay; type: cell-based, human; conditions: control T 155558.2, control T0 544366.45
Method: The scratch test was performed to verify that the tested compound 3g could inhibit the formation of metastases by the HT29 cell line. The seeded HT29 cells were incubated until they formed a monolayer over the entire surface of the well. Then, a scratch test was performed by making a scratch in the monolayer and measuring its width—that is, To, amounting to 544,366.45 μm^2. Freshly prepared compounds were added to the HT29 cells at concentrations of 10, 25, 50, and 100 μM. Breeding plates were incubated for 24 h. The next day, scratch width was measured again using the ImageJ open-source platform. […] The lowest cellular overgrowth of HT29 culture occurred at the concentration of 100 μM for the compound. Compound 3g inhibited the migration of HT29 cells more strongly than the reference drugs, showing that it has the potential to inhibit metastasis. The width of the scratch after 24 h when no compound was applied to the cells was used as a control (T = 155,558.2 μm^2).
All cell lines were grown in 5% CO2 at 95% humidity and 37 °C, with both morphology and confluence assessed twice per week. When the confluence was greater than 70%, adherent cell lines were detached from the bottle surface with a TrypLE solution and then used in assays or reduced. The cells were collected into centrifuge tubes and centrifuged at 1000× g for 5 min at room temperature. The supernatant was removed to dry. The cell pellets were then resuspended in an appropriate medium. The cells were counted using a Bürker chamber and resuspended in 96-well plates to a cell density of 10,000 cells per well for MTT assay. For the rhodamine accumulation test and the detection of apoptosis assay, cells were seeded at a density of 30,000 per well. In the migration assay, cells were seeded at a density of 20,000 per well, and monolayer formation was awaited.
After seeding, HT29 cells were incubated until they formed a monolayer over the entire surface of the well. A scratch was made on the surface overgrown with cells, and then photomicrographs of the scratch were taken using the EVOS FL microscope. The freshly prepared compound 3g and the reference drugs were added at concentrations of 10, 25, 50, and 100 µM. Then, they were incubated for 24 h, and micrographs were performed at that time using the EVOS FL microscope. The scratch width was measured using the ImageJ open-source platform. The measurement of scratch width was also performed after 24 h without adding compounds.

`Cc1noc(N)c1-c1nc2c(NCCCN(C)C)ncnc2o1` [Compound 3g, 2-(5-Amino-3-methylisoxazol-4-yl)-7-N-[3-(N,N-dimethylamino)propyl]aminooxazolo[5,4-d]pyrimidine] was tested, and the BCL-2 concentration (BCL-2) was 0.41 ng/mL, the CC50 [1] was 209 ± 9.67 µM and the “scratch width after 24 h, mean” value (HT29 cells; 10 μM) was 180844 μm^2. For the same compound, the “scratch width after 24 h, mean” value (HT29 cells; 25 μM) was 218581.6 μm^2, the “scratch width after 24 h, mean” value (HT29 cells; 50 μM) was 245687.8 μm^2 and the “scratch width after 24 h, mean” value (HT29 cells; 100 μM) was 314566.8 μm^2.
